Assay results: ChEMBL document CHEMBL5046288, “Design, Synthesis, and Bioevaluation of 2-Aminopteridin-7(8H)-one Derivatives as Novel Potent Adenosine A2A Receptor Antagonists for Cancer Immunotherapy” (J Med Chem, 2022)
Calls of active or inactive are those of the source. The calls are words filed in the database; no cut-off is given here.

Tests used:
[1] = molecular target: T1, Adenosine receptor A2a (Homo sapiens, UniProt P29274); experiment: Antagonist activity at human A2aR expressed in HEK293 cells assessed as reduction in cAMP production incubated for 60 mins by ultra LANCE cAMP detection assay; type: functional, cell-based
[2] = Metabolic stability in mouse liver microsomes assessed as half life at […] measured up to 60 mins in presence of NADPH by HPLC-MS/MS analysis; type: ADME, Microsome
[3] = organism: Homo sapiens; experiment: Selectivity ratio of IC50 for human A3R to IC50 for human A2aR
[4] = organism: Homo sapiens; experiment: Selectivity ratio of IC50 for human A1R to IC50 for human A2aR
[5] = molecular target: T1, Adenosine receptor A2a; experiment: Antagonist activity at human A2aR expressed in HEK293 cells assessed as reduction in NECA-induced cAMP production incubated for 20 mins in presence of 20 nM NECA by GloSensor cAMP detection assay; type: functional, cell-based
[6] = organism: Homo sapiens; experiment: Selectivity ratio of IC50 for human A2BR to IC50 for human A2aR
[7] = tested on: HCT-116; experiment: Cytotoxicity against human HCT-116 cells co-cultured with Ion/PMA-activated human Jurkat T cells assessed as reversal of NECA-induced suppression of cytotoxic function of Jurkat T cell by measuring survival rate at E:T ratio of 6:1 at 10 uM measured after 48 hrs by crystal violet staining based colony assay; type: functional
[8] = tested on: HCT-116; experiment: Cytotoxicity against human HCT116 cells assessed as reduction in cell viability incubated for 24 hrs by MTS assay; type: toxicity, cell-based; settings: hct-116, 24 h
[9] = tested on: MC-38; experiment: Cytotoxicity against mouse MC38 cells assessed as reduction in cell viability incubated for 24 hrs by MTS assay; type: toxicity, cell-based; settings: mc-38, 24 h
[10] = Upregulation of NECA-suppressed IL-2 protein level in Ion/PMA-activated human Jurkat T cells at 10 uM by Western blotting analysis; type: functional
[11] = tested on: Jurkat; experiment: Upregulation of NECA-suppressed IL-2 mRNA level in Ion/PMA-activated human Jurkat T cells at 10 uM by Q-PCR analysis; type: functional, cell-based
[12] = molecular target: T1, Adenosine receptor A2a; experiment: Antagonist activity at human A2aR expressed in HEK293 cells assessed as reduction in NECA-induced cAMP production incubated for 20 mins in presence of 40 nM NECA by ultra LANCE cAMP detection assay; type: functional, cell-based
[13] = molecular target: T1, Adenosine receptor A2a; experiment: Antagonist activity at human A2aR expressed in HEK293 cells assessed as reduction in NECA-induced cAMP production incubated for 20 mins in presence of 1 uM NECA by ultra LANCE cAMP detection assay; type: functional, cell-based

T1 sequence (P29274 whole entry): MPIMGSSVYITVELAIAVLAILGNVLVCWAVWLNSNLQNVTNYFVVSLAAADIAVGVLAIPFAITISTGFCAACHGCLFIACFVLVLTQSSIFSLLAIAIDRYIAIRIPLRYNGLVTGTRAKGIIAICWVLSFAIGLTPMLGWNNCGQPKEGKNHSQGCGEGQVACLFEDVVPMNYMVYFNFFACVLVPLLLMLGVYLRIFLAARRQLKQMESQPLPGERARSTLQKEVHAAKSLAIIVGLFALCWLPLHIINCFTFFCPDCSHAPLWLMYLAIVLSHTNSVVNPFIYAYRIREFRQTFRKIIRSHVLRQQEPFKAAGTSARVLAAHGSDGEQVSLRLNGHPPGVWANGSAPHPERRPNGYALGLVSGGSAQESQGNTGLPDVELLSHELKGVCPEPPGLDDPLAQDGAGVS

Structure (SMILES) | IC50 [1] | other results
COc1ccc(N2CCN(CCn3c(=O)cnc4c(-c5ccc(C)o5)nc(N)nc43)C[C@@H]2C)cc1 | 224 nM | –
Cc1ccc(-c2nc(N)nc3c2ncc(=O)n3CCN2CCN(c3ccc(F)cc3)CC2)o1 | 58.8 nM | –
COc1ccc(N2C[C@@H]3C[C@H]2CN3CCn2c(=O)cnc3c(-c4ccc(C)o4)nc(N)nc32)cc1 | > 10000 nM | –
Cc1ccc(-c2nc(N)nc3c2ncc(=O)n3CCN2CCC(c3ccccc3)CC2)o1 | 388 nM | –
COc1ccc(N2CCN(CCn3c(=O)cnc4c(-c5ccc(C)o5)nc(N)nc43)CC2)c(F)c1 | 4.9 nM | half-life [2]: 5.1 min
Cc1ccc(-c2nc(N)nc3c2ncc(=O)n3CCN2CCN(c3ccc(OC(F)(F)F)cc3)CC2)o1 | 120 nM | –
COc1ccccc1N1CCN(CCn2c(=O)cnc3c(-c4ccc(C)o4)nc(N)nc32)CC1 | 3810 nM | –
Cc1ccc(-c2nc(N)nc3c2ncc(=O)n3CCN2CCN(c3ccccc3F)CC2)o1 | 11.7 nM | –
Cc1ccc(-c2nc(N)nc3c2ncc(=O)n3CCN2CCN(c3ccc(Oc4ccccc4)cc3)CC2)o1 | 605 nM | –
COCCOc1ccc(N2CCN(CCn3c(=O)cnc4c(-c5ccc(C)o5)nc(N)nc43)CC2)c(F)c1F | 9.3 nM | –
Cc1ccc(-c2nc(N)nc3c2[nH]c(=O)n3Cc2ccccc2)o1 | 1030 nM | –
COc1ccc(N(C)C2CN(CCn3c(=O)cnc4c(-c5ccc(C)o5)nc(N)nc43)C2)cc1 | > 10000 nM | –
Cc1ccc(-c2nc(N)nc3c2NC(=O)CN3Cc2ccccc2)o1 | > 10000 nM | –
COc1ccc(N2CCN(CCn3c(=O)cnc4c(-c5ccc(C)o5)nc(N)nc43)CC2)cn1 | 29.5 nM | –
COCCOc1ccc(N2CCN(CCn3c(=O)cnc4c(-c5ccc(C)o5)nc(N)nc43)CC2)cc1 | 23.8 nM | –
Cc1ccc(-c2nc(N)nc3c2ncc(=O)n3CCN2CCN(c3ccc(C(F)(F)F)cc3)CC2)o1 | 176 nM | –
COc1cccc(Cn2c(=O)cnc3c(-c4ccc(C)o4)nc(N)nc32)c1 | 476 nM | –
COc1ccc(N2CCCN(CCn3c(=O)cnc4c(-c5ccc(C)o5)nc(N)nc43)CC2)cc1 | 716 nM | –
Cc1ccc(-c2nc(N)nc3c2ncc(=O)n3CC2CCCCC2)o1 | 1880 nM | –
Cc1ccc(-c2nc(N)nc3c2ncc(=O)n3CCN2CCN(c3ccc(OC(F)F)cc3F)CC2)o1 | 21 nM | –
Cc1ccc(-c2nc(N)nc3c2CCN(Cc2ccccc2)C3)o1 | > 10000 nM | –
Cc1ccc(-c2nc(N)nc3c2ncc(=O)n3Cc2ccccc2)o1 | 482 nM | –
COc1ccc(N2CCN(CCn3c(=O)cnc4c(-c5ccc(C)o5)nc(N)nc43)[C@@H](C)C2)c(F)c1 | 8.3 nM | Ratio IC50 [3]: > 1000; Ratio IC50 [4]: > 1000; IC50 [5]: 6.6 nM; Ratio IC50 [6]: > 1000; Activity [7]: 48.6%; Activity [8]: Non-Toxic; Activity [9]: Non-Toxic; fold change (FC) [10]: 3.77; Activity [11]: inactive; IC50 [12]: 8.3 nM; IC50 [13]: 180 nM; half-life [2]: 38.5 min

Structure (SMILES) | IC50 [1] | other results
Cc1ccc(-c2nc(N)nc3c2ncc(=O)n3CC2CCN(c3ccccc3)CC2)o1 | > 10000 nM | –
Cc1ccc(-c2nc(N)nc3c2ncc(=O)n3CCN2CCN(C3CCCC3)CC2)o1 | > 10000 nM | –
Cc1ccc(-c2nc(N)nc3c2ncc(=O)n3Cc2cccc(C(F)(F)F)c2)o1 | > 10000 nM | –
COc1ccc(N2C[C@H](C)N(CCn3c(=O)cnc4c(-c5ccc(C)o5)nc(N)nc43)C[C@H]2C)cc1 | 2020 nM | –
Cc1ccc(-c2nc(N)nc3c2ncc(=O)n3CCN2CCN(c3ccc(F)cc3Cl)CC2)o1 | 86.5 nM | –
COc1ccc(N2CCC(N(C)CCn3c(=O)cnc4c(-c5ccc(C)o5)nc(N)nc43)C2)cc1 (centres undefined) | > 10000 nM | –
Cc1ccc(-c2nc(N)nc3c2ncc(=O)n3CCCc2ccccc2)o1 | 712 nM | –
Cc1ccc(-c2nc(N)nc3c2ncc(=O)n3CC2CC2)o1 | 1010 nM | –
Cc1ccc(-c2nc(N)nc3c2ncc(=O)n3Cc2ccco2)o1 | 2170 nM | –
Cc1ccc(-c2nc(N)nc3c2ncc(=O)n3CCN2CCN(c3cccc(OC(F)(F)F)c3)CC2)o1 | > 10000 nM | –
Cc1ccc(-c2nc(N)nc3c2ncc(=O)n3CCN2CCN(c3cccc(F)c3)CC2)o1 | 57.5 nM | –
COc1ccc(N2CCN(CCn3c(=O)cnc4c(-c5ccc(C)o5)nc(N)nc43)CC2)nc1 | 213 nM | –
Cc1ccc(-c2nc(N)nc3c2ncc(=O)n3CCN2CCN(c3ccc(F)cc3F)CC2)o1 | 8.5 nM | –
COc1ccc(N(C)C2CCN(CCn3c(=O)cnc4c(-c5ccc(C)o5)nc(N)nc43)C2)cc1 (centres undefined) | > 10000 nM | –
Cc1ccc(-c2nc(N)nc3c2ncc(=O)n3CCN2CCN(c3ccc(OC(F)F)cc3)CC2)o1 | 63.7 nM | –
COc1ccc(N2CC3CCC(C2)N3CCn2c(=O)cnc3c(-c4ccc(C)o4)nc(N)nc32)cc1 | 555 nM | –
COc1cnc(N2CCN(CCn3c(=O)cnc4c(-c5ccc(C)o5)nc(N)nc43)CC2)c(F)c1 | 5.5 nM | –
Cc1ccc(-c2nc(N)nc3c2n(C)c(=O)n3Cc2ccccc2)o1 | 2830 nM | –
Cc1ccc(-c2nc(N)nc3c2ncc(=O)n3CCN2CCN(C)CC2)o1 | > 10000 nM | –
Cc1ccc(-c2nc(N)nc3c2ncc(=O)n3CCCCc2ccccc2)o1 | 980 nM | –
COc1ccc(Cn2c(=O)cnc3c(-c4ccc(C)o4)nc(N)nc32)cc1 | > 10000 nM | –
COc1ccc(N2CCN(CCn3c(=O)cnc4c(-c5ccc(C)o5)nc(N)nc43)C[C@H]2C)cc1 | 37.5 nM | –
Cc1ccc(-c2nc(N)nc3c2ncc(=O)n3CCN2CCN(c3ccccc3OC(F)(F)F)CC2)o1 | > 10000 nM | –
